Laboratory results: US20120190666A1, “Heteroaryl Compounds as PIKK Inhibitors” (Amgen Inc., priority 2009, published 2012)

Test system: phosphorylation of Akt at Serine 473 in U87 MG cells
Assay: pAkt AlphaScreen (U87 cell)
Format: cell-based
Conditions: pAkt at Serine 473, U87 MG cells, two hours with compound
Protocol: The pAkt AlphaScreen® assay (PerkinElmer, Waltham, Mass.) determines whether there is phosphorylation of Akt at Serine 473 by recruitment of a phosphospecific antibody. This assay was performed using U87 MG cells. The U87 growth media consists of MEM (Gibco, Carlsbad, Calif.) supplemented with 10% FBS (Gibco), 1× Non-Essential Amino Acids (Gibco,) and 1× Penicillin/Streptomycin/Glutamine (Gibco). The cells were maintained weekly using 0.05% Trypsin (Gibco) and replated in 150 mm TC— Treated Culture Dishes (Corning, Corning, N.Y.).
The first day of the assay, the adherent cells were trypsinized, media was added to the loose cells and cells were mixed to a homogenous mixture. 0.5 ml of the homogenous mixture was counted on the Beckman Coulter® Vi-Cell™ XR (Fullerton, Calif.). 50 frames of cells were counted and the number of viable cells was determined. The cells were then diluted to 0.25 million cells per ml, and centrifuged at 200 rcf for 5 minutes. The media was removed and the cells were reconstituted in fresh media for plating. The cells were plated at 20 μl per well on the PerkinElmer® FlexDrop PLUS in Low Volume 384 Well White Tissue Culture Plates (Corning) with a final cell density of 5K cells per well. The plates were incubated overnight at 37° Celsius, 5% CO2.
On the second day, the compound plates were prepared, the cells were treated with compound and the pAkt reaction mix was added to the cell lysate. 384 well compound plates were prepared containing 1 μl of compound per well starting at 5 mM and diluted 1:2 across the row, resulting in a 22 well serial dilution. 39 μl of growth media was added to the compound plate in rows 1-22 using the PerkinElmer® FlexDrop PLUS resulting in a DMSO concentration of 2.5%. The cell plates and diluted compound plates were put onto the VELOCITY11™ VPREP™ 384 ST where the compound plate was mixed and 5 μl of serially diluted compound or controls was added to the cell plate. The final concentration of the compounds was 25 μM serially diluted to 11.9 pM in 0.5% DMSO.
The cell plates were then incubated with compound for two hours at 37° C., 5% CO2. After two hours, the media in the cell plates was aspirated using the BioTek® ELx405HT plate washer (Winooski, Vt.) removing the majority of media and compound without disturbing the adherent U87 cells. The following assay reagents are components of the SureFire® Akt (Ser 473) Phosphorylation 50K Point Kit (TGR BioSciences, Adelaide, Austalia) and an IgG Detection Kit (PerkinElmer, Waltham, Mass.). 5 μl of 1× Lysis Buffer was added to each well using the PerkinElmer® FlexDrop PLUS. The plates were then incubated at room temperature on a shaker for ten minutes. The AlphaScreen® reaction was prepared under low light conditions (subdued or green light) including p-Aid (Ser 473) Reaction Buffer, Dilution Buffer, Activation Buffer, Acceptor Beads and Donor Beads at a ratio of 40:20:10:1:1 respectively. The AlphaScreen® reaction was added to the cell lysate at 6 μl per well using the PerkinElmer® FlexDrop PLUS. The plates were placed in a humid environment to reduce edge effects and incubated overnight at room temperature with restricted air flow in the dark.
On the final day of the experiment, the plates were read on the PerkinElmer® EnVision™ 2103 Multilable Reader using the standard AlphaScreen® readout. The POC is calculated and the data is analyzed to report the IC50 IP for pAkt at Serine 473.
Activity data for the compounds tested in the PI3K cell based Akt assay is provided in Table 1 under the column heading U87

SMILES	IC50 [nM]	IC50 (Homo sapiens, U-87 MG, 2 h) [nM]
Cc1nc(N)nc(-c2c(Nc3ccn[nH]3)nc3ccc(CCC(O)CO)cn23)n1 (stereo not drawn) [Cpd 291, 4-(3-(4-amino-6-methyl-1,3,5-triazin-2-yl)-2-(1H-pyrazol-5-ylamino)-midazo[1,2-a]pyridin-6-yl)-1,2-butanediol]	170	–
Cc1nc(Nc2cc(OCC(F)(F)F)cnn2)cc(-c2c(Nc3cc[nH]n3)nc3cccnn23)n1 [Cpd 60, 3-(2-methyl-6-((5-(2,2,2-trifluoroethoxy)-3-pyridazinyl)amino)-4-pyrimidinyl)-N-1H-pyrazol-3-ylimidazo[1,2-b]pyridazin-2-amine]	–	20
Cc1nc(N)nc(-c2c(Nc3cc[nH]n3)nc3ccc(-c4ccoc4)cn23)n1 [Cpd 105, 3-(4-amino-6-methyl-1,3,5-triazin-2-yl)-6-(3-furanyl)-N-1H-pyrazol-3-ylimidazo[1,2-a]pyridin-2-amine]	–	50
Cc1nc(Nc2ccc(N3CCOCC3)nn2)cc(-c2c(Nc3cc[nH]n3)nc3ccccn23)n1 [Cpd 49, 3-(2-methyl-6-((6-(4-morpholinyl)-3-pyridazinyl)amino)-4-pyrimidinyl)-N-1H-pyrazol-3-ylimidazo[1,2-a]pyridin-2-amine]	–	60
Cc1nc(N)nc(-c2c(Nc3cc[nH]n3)nc3ccc(-c4cccc(NC(=O)C5CC5)c4)cn23)n1 [Cpd 115, N-(3-(3-(4-amino-6-methyl-1,3,5-triazin-2-yl)-2-(1H-pyrazol-3-ylamino)imidazo[1,2-a]pyridin-6-yl)phenyl)cyclopropanecarboxamide]	–	40
Cc1nc(N)cc(-c2c(Nc3cc[nH]n3)nc3ccc(OCCN4CCCC4)nn23)n1 [Cpd 73]	–	70
CNS(=O)(=O)c1ccc(-c2ccc3nc(Nc4cc[nH]n4)c(-c4nc(C)nc(N)n4)n3c2)cc1 [Cpd 351, 4-(3-(4-amino-6-methyl-1,3,5-triazin-2-yl)-2-(1H-pyrazol-3-ylamino)imidazo[1,2-a]pyridin-6-yl)-N-methylbenzenesulfonamide]	–	30
COCCOc1ccc2nc(Nc3cc[nH]n3)c(-c3cc(N)nc(C)n3)n2n1 [Cpd 69, 3-(6-amino-2-methyl-4-pyrimidinyl)-6-(2-methoxyethoxy)-N-1H-pyrazol-3-ylimidazo[1,2-b]pyridazin-2-amine]	–	1
CC(=O)Nc1cccc(-c2ccc3nc(Nc4cc[nH]n4)c(-c4nc(C)nc(N)n4)n3c2)c1 [Cpd 114, N-(3-(3-(4-amino-6-methyl-1,3,5-triazin-2-yl)-2-(1H-pyrazol-3-ylamino)imidazo[1,2-a]pyridin-6-yl)phenyl)acetamide]	–	30
Cc1nc(Nc2cccnn2)cc(-c2c(Nc3ccn(C)n3)nc3cccnn23)n1 [Cpd 34, N-(1-methyl-1H-pyrazol-3-yl)-3-(2-methyl-6-(3-pyridazinylamino)-4-pyrimidinyl)imidazo[1,2-b]pyridazin-2-amine]	–	60
Cc1nc(NC(=O)N2CCN(C)CC2)cc(-c2c(Nc3cc[nH]n3)nc3cccnn23)n1 [Cpd 77, 4-methyl-N-(2-methyl-6-(2-(1H-pyrazol-3-ylamino)imidazo[1,2-b]pyridazin-3-yl)-4-pyrimidinyl)-1-piperazinecarboxamide]	–	1640
Cc1nc(N)cc(-c2c(Nc3ccc(NC(=O)Nc4ccncc4)cc3)nc3ccccn23)n1 [Cpd 57, 1-(4-((3-(6-amino-2-methyl-4-pyrimidinyl)imidazo[1,2-a]pyridin-2-yl)amino)phenyl)-3-(4-pyridinyl)urea]	–	70
CC(=O)n1ccc(Nc2nc3cccnn3c2-c2cc(N)nc(C)n2)n1 [Cpd 67, N-(1-acetyl-1H-pyrazol-3-yl)-3-(6-amino-2-methyl-4-pyrimidinyl)imidazo[1,2-b]pyridazin-2-amine]	–	10
Cc1nc(N)nc(-c2c(Nc3cc[nH]n3)nc3cc(C4=CCN(C(=O)OC(C)(C)C)CC4)ccn23)n1 [Cpd 183, tert-butyl 4-(3-(4-amino-6-methyl-1,3,5-triazin-2-yl)-2-(1H-pyrazol-3-ylamino)imidazo[1,2-a]pyridin-7-yl)-3,6-dihydro-1(2H)-pyridinecarboxylate]	–	760
Cc1nc(N)nc(-c2c(Nc3cc[nH]n3)nc3ccc(-c4ccc(C(=O)O)cc4C)cn23)n1 [Cpd 177, 4-(3-(4-amino-6-methyl-1,3,5-triazin-2-yl)-2-(1H-pyrazol-3-ylamino)imidazo[1,2-a]pyridin-6-yl)-3-methylbenzoic acid]	–	170
Cc1nc(NC(=O)N(C)C)cc(-c2c(Nc3cc[nH]n3)nc3cccnn23)n1 [Cpd 75, 1,1-dimethyl-3-(2-methyl-6-(2-(1H-pyrazol-3-ylamino)imidazo[1,2-b]pyridazin-3-yl)-4-pyrimidinyl)urea]	–	790
Cc1nc(-c2c(Nc3cccc(O)c3)nc3ccccn23)c2nc[nH]c2n1 [Cpd 2]	–	50
COc1ccc(Nc2cc(-c3c(Nc4cc[nH]n4)nc4cccnn34)nc(C)n2)cc1 [Cpd 33]	–	290
CC(=O)Nc1cc(-c2c(Nc3ccn(C)n3)nc3c(F)cccn23)nc(C)n1 [Cpd 63, N-(6-(8-fluoro-2-((1-methyl-1H-pyrazol-3-yl)amino)imidazo[1,2-a]pyridin-3-yl)-2-methyl-4-pyrimidinyl)acetamide]	–	50
CNc1cc(-c2c(Nc3cc[nH]n3)nc3ccc(N4CCOCC4)nn23)nc(C)n1 [Cpd 72, 3-(2-methyl-6-(methylamino)-4-pyrimidinyl)-6-(4-morpholinyl)-N-1H-pyrazol-3-ylimidazo[1,2-b]pyridazin-2-amine]	–	3
COc1ccc(-c2ccc3nc(Nc4ccn[nH]4)c(-c4nc(C)nc(N)n4)n3c2)cc1CO [Cpd 286]	–	10
CCNC(=O)Nc1ccc(Nc2nc3ccccn3c2-c2cc(N)nc(C)n2)cc1 [Cpd 40, 1-(4-((3-(6-amino-2-methyl-4-pyrimidinyl)imidazo[1,2-a]pyridin-2-yl)amino)phenyl)-3-ethylurea]	–	60
Cc1nc(NC(=O)CC(F)(F)F)cc(-c2c(Nc3ccn(C)n3)nc3cccnn23)n1 [Cpd 134, 3,3,3-trifluoro-N-(2-methyl-6-(2-((1-methyl-1H-pyrazol-3-yl)amino)imidazo[1,2-b]pyridazin-3-yl)-4-pyrimidinyl)propanamide]	–	210
Cc1nc(N)cc(-c2c(Nc3ccn(C(=O)NCc4ccccc4)n3)nc3ccccn23)n1 [Cpd 222, 3-((3-(6-amino-2-methyl-4-pyrimidinyl)imidazo[1,2-a]pyridin-2-yl)amino)-N-benzyl-1H-pyrazole-1-carboxamide]	–	1810
CCOC(=O)c1cc(Nc2cc[nH]n2)n(-c2cc(N)nc(C)n2)n1 [Cpd 15, ethyl 5-(1H-pyrazol-3-ylamino)-1-(6-amino-2-methylpyrimidin-4-yl)-1H-pyrazole-3-carboxylate]	–	110
COc1ccc(Nc2cc(C)nn2-c2cc(N)nc(C)n2)cn1 [Cpd 24, 6-(5-(6-methoxypyridin-3-ylamino)-3-methyl-1H-pyrazol-1-yl)-2-methylpyrimidin-4-amine]	–	870
Cc1nc(NC(=O)CN(C)C)cc(-c2c(Nc3ccn(C)n3)nc3cccnn23)n1 [Cpd 92]	–	180
Cc1nc(N)nc(-c2c(Nc3cc[nH]n3)nc3ccc(-c4ccc(F)cc4C)cn23)n1 [Cpd 107, 3-(4-amino-6-methyl-1,3,5-triazin-2-yl)-6-(4-fluoro-2-methylphenyl)-N-1H-pyrazol-3-ylimidazo[1,2-a]pyridin-2-amine]	–	130
CNc1nc(C)nc(-c2c(Nc3cc[nH]n3)nc3ccccn23)n1 [Cpd 3, 3-(4-methyl-6-(methylamino)-1,3,5-triazin-2-yl)-N-(1H-pyrazol-3-yl)imidazo[1,2-a]pyridin-2-amine]	–	50
CC(=O)NCc1ccc(-c2ccc3nc(Nc4cc[nH]n4)c(-c4nc(C)nc(N)n4)n3c2)cc1 [Cpd 100, N-(4-(3-(4-amino-6-methyl-1,3,5-triazin-2-yl)-2-(1H-pyrazol-3-ylamino)imidazo[1,2-a]pyridin-6-yl)benzyl)acetamide]	–	10
